Assay results taken from PMC11661381, “Covalent-fragment screening identifies selective inhibitors of multiple Staphylococcus aureus serine hydrolases important for growth and biofilm formation” (Research Square, 2024).

What was measured:
[1] = test system: Pseudomonas aeruginosa; experiment: Bacterial growth inhibition assay, P. aeruginosa; assay type: cell-based
Experimental: (§1) Bacteria were streaked from glycerol stocks onto agar plates and grown overnight at 37°C. A single colony was inoculated in either Tryptic Soy Broth (TSB; Sigma-Aldrich, St. Louis, MO; used for most species) or Bacto Brain Heart Infusion (BHI; Becton, Dickinson, and Company, Franklin Lakes, NJ; used for L. monocytogenes and S. pyogenes) and grown at 37°C shaking until mid-exponential phase (OD600 = 0.5), then diluted 1:10 in cation-adjusted Mueller Hinton Broth (MHB2, Millipore Sigma, Bedford, MA; used for most species) or BHI (for L. monocytogenes and S. pyogenes). 15 μl of this dilution was added to 135 μl of MHB2 or BHI in a flat-bottom clear 96-well plate for a starting inoculum of ~ 5 × 10^5 CFU/ml.
(§2) For bacterial growth inhibition assay, wild-type S. aureus and transposon mutants (fphB::Tn, fphE::Tn and fphH::Tn) were grown with compounds at final concentrations ranging from 1–100 μM and compared to growth in media with an equivalent percentage of DMSO. […] All growth curves were repeated at least twice and analyzed in GraphPad Prism 10.0 software. […] The cultures were incubated overnight at 37°C, 5% CO2 before their optical density was read. The EC50 of the antibiotics against the bacteria in the presence or absence of N34 were determined by fitting the normalized data into a four-parameter logistic model in GraphPad Prism 10.0 software.

[2] = test system: S. aureus biofilm formation; experiment: Crystal violet biofilm inhibition assay; assay type: cell-based, Staphylococcus aureus; settings: for effect on biofilm formation (in words): wild type S. aureus, 1–100 μM
Experimental: Overnight cultures of S. aureus (wild-type, transposon mutants and complemented) strains (Table S3) grown in TSB, were subcultured on fresh TSB and grown to OD600 of 0.5. Biofilms were cultured in 96 well plates by transferring 1 μL of the culture to 200 μL of TSB plus 1% glucose with or without the inhibitors and incubated for 16 hours at 37°C without agitation. The inhibitor concentrations ranged from 1, 5, 10, 50 and 100 μM final concentration. Equal volume of DMSO was added as control. The wells were washed to remove the planktonic cells and the plates air-dried before staining with 200μL of 0.1% w/v crystal violet for 10 minutes at room temperature. The wells were washed to remove excess dye and blotted to dry. Each well was filled with 200μL of DMSO for 10 minutes at room temperature to dissolve the dye. The absorbance was measured at 590 nm using Spark multimode microplate reader (TECAN). The data represents n = 3 independent experiments and are expressed as a percentage of the uninhibited wild-type bacteria. All the data are normalized such that 100% represent untreated WT S. aureus. P values were determined using ordinary one-way ANOVA multiple comparisons GraphPad Prism 10.0 software. *P < 0.05, **P < 0.01, ***P < 0.001 and ****P < 0.0001.

[3] = test system: Streptococcus pyogenes; experiment: Bacterial growth inhibition assay, S. pyogenes; assay type: cell-based
Experimental: as §1, §2

[4] = test system: S. aureus Newman; experiment: Antibiotic susceptibility after N34 pretreatment; assay type: cell-based, Staphylococcus aureus; settings: 20 μM N34 pretreatment, then antibiotics; Table S5
Experimental: The strong antibiofilm activity of the boronic acid compounds argues for their possible use in combination therapy with antibiotics to treat staphylococcal infections. Therefore, we wanted to test if the N34 treatment impacts the susceptibility profile of the S. aureus to antibiotics. To test this, we pretreated bacteria with a sub-inhibitory concentration of N34 (20 μM) for 2 hours at 37°C followed by treatment with selected antibiotics.
For bacterial growth inhibition assay, wild-type S. aureus and transposon mutants (fphB::Tn, fphE::Tn and fphH::Tn) were grown with compounds at final concentrations ranging from 1–100 μM and compared to growth in media with an equivalent percentage of DMSO. Each condition was plated as technical duplicates. The plate was incubated at 37°C with shaking every 15 minutes followed by measurement of OD600 for 14 hr. All growth curves were repeated at least twice and analyzed in GraphPad Prism 10.0 software. For bacterial resistance analysis, overnight culture of S. aureus Newman was diluted to an OD600 of 0.01 in MHB. […] The cultures were incubated overnight at 37°C, 5% CO2 before their optical density was read. The EC50 of the antibiotics against the bacteria in the presence or absence of N34 were determined by fitting the normalized data into a four-parameter logistic model in GraphPad Prism 10.0 software.

[5] = test system: S. epidermidis; experiment: Bacterial growth inhibition assay, S. epidermidis; assay type: cell-based, Staphylococcus epidermidis
Experimental: as §1, §2

[6] = Cytotoxicity assay (CellTiter-Blue); assay type: cell-based; settings: human; HEK293 cells, 48hr of incubation
[7] = test system: Escherichia coli; experiment: Bacterial growth inhibition assay, E. coli; assay type: cell-based
[8] = test system: Fph enzymes in live S. aureus cells (USA300); experiment: Competition of FP-alkyne labeling in live S. aureus cells; assay type: cell-based, Staphylococcus aureus
Experimental: (§3) One colony of each of S. aureus wild-type and transposon mutants fphB::Tn, fphE::Tn and fphH::Tn picked from growth on a Tryptic soya agar plate were inoculated in 5 mL of Tryptic soya broth (TSB). The overnight bacterial cultures were spun down at 5,000 g for 10 min and pellet was collected. The pellets were washed twice in 1X PBS buffer and resuspended in the same buffer. Cells were first preincubated with the indicated concentrations of inhibitors for 2hr at 37°C. The cells were washed twice with 1X PBS buffer. The resuspended pellets were incubated with Fluorophosphonate-alkyne (FP-alkyne) for 30 min at 37°C. Cells were washed again twice with 1X PBS buffer and resuspended in with 1X PBS and 0.1% Triton–X and lysed by beat beating at 4°C. Next, lysed cells (20 μL) were mixed with 2.16 μL of freshly prepared click mix (0.5 μL of 50 mM CuSO4 in H2O, 1.16 μL of 100 mM BTTAA in DMSO, and 0.5 μL of N3-Cy5 in DMSO) and 1.16 μL of 300 mM sodium ascorbate solution in H2O and incubated at 37 °C for 30 min. Next step, 20 μL of 4X SDS loading buffer was added in each sample and boiled at 100 °C for 10 min. The processed samples were allowed to cool and analyzed by SDS-PAGE (12%) running at 120 V in an electrophoresis chamber. Cy5 fluorescence was imaged using the Cy5 channel on a Typhoon 9410 Imager (Amersham Biosciences).

[9] = test system: S. aureus wild type and fph transposon mutants; experiment: Bacterial growth inhibition assay, S. aureus; assay type: cell-based, Staphylococcus aureus; settings: 1–100 μM
Experimental: as §1
For bacterial growth inhibition assay, wild-type S. aureus and transposon mutants (fphB::Tn, fphE::Tn and fphH::Tn) were grown with compounds at final concentrations ranging from 1–100 μM and compared to growth in media with an equivalent percentage of DMSO. Each condition was plated as technical duplicates. The plate was incubated at 37°C with shaking every 15 minutes followed by measurement of OD600 for 14 hr. All growth curves were repeated at least twice and analyzed in GraphPad Prism 10.0 software. For bacterial resistance analysis, overnight culture of S. aureus Newman was diluted to an OD600 of 0.01 in MHB. This was followed by pretreatment with 20 μM N34 or equivalent DMSO volume as control. The pretreatment was allowed to proceed for 3 hr before initiating treatment with different concentrations of the test antibiotics (Table S5). The cultures were incubated overnight at 37°C, 5% CO2 before their optical density was read. The EC50 of the antibiotics against the bacteria in the presence or absence of N34 were determined by fitting the normalized data into a four-parameter logistic model in GraphPad Prism 10.0 software.

[10] = molecular target: T1, rFphH (Staphylococcus aureus, UniProt A0A0H2XJL0); experiment: FP-Cy5 active site labeling of recombinant protein, rFphH; assay type: binding; settings: 500 nM rFphH
T1 construct: otherwise full-length FphE (Uniprot ID Q2FDS6) and FphH (A0A0H2XJL0) proteins; His6 (3C-cleavable, pETNKI-his-3C-LIC vector) (N); made in house; E. coli is inferred from the pET28a-type vector, IPTG induction and LB/kanamycin
T1 sequence (A0A0H2XJL0 1-246): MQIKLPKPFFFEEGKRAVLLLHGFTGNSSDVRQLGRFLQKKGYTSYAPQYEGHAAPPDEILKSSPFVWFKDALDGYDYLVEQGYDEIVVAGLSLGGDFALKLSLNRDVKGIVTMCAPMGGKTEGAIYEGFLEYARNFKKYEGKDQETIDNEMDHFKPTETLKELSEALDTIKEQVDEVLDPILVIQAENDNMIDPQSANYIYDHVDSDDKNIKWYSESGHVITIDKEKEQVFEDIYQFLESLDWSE
Experimental: (§4) For activity-based protein labeling experiments, 500 nM of rFphB, rFphE and rFphH in 1X PBS and 0.1% Triton–X were preincubated with different concentrations of inhibitors or DMSO for 2hr at room temperature, followed by adding 300 nM of fluorophosphonate (FP) alkyne and incubated for 30 min at room temperature. Next, 20 μL of the reaction volume were mixed with 2.16 μL of freshly prepared click mix (0.5 μL of 50 mM CuSO4 in H2O, 1.16 μL of 100 mM BTTAA in DMSO, and 0.5 μL of N3-Cy5 in DMSO) and 1.16 μL of 300 mM sodium ascorbate solution in H2O. Samples were incubated at 37°C for 30 min, boiled in SDS loading buffer and analyzed by SDS–PAGE. Cy5 fluorescence was imaged using the Cy5 channel on a Typhoon 9410 Imager (Amersham Biosciences).

[11] = molecular target: T2, rFphB (Staphylococcus aureus, UniProt A0A0H2XJG5); experiment: Intact protein LC-MS of rFphB with inhibitor; assay type: binding; settings: rFphB:X20 1:10
T2 construct: made in house
T2 sequence (A0A0H2XJG5 1-322): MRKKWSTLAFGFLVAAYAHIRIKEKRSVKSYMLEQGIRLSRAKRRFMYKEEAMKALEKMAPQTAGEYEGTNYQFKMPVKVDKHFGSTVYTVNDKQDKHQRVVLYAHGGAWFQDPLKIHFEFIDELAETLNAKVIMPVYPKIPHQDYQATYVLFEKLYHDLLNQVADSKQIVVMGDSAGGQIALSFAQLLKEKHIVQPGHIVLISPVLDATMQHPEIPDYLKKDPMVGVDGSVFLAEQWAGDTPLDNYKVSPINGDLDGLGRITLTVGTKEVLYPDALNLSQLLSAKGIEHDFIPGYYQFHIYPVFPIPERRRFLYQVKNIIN
Experimental: Next, 10 μL of the labeled sample was injected and analyzed by LC-MS. For LC-MS conditions, 95% solvent A (0.1% formic acid in LC-MS grade water), 5% solvent B (0.1% formic acid in LC-MS grade acetonitrile) at 0.6 mL/min was used for 2 min to remove excess of salts into waste before a linear 6-minute gradient from 80% solvent A (20% solvent B) to 20% solvent A (80% solvent B), followed by a one-minute 95% solvent A (5% solvent B). Protein labeling efficiency was quantified by UV. The acquired mass of protein was deconvoluted using the deconvolution software in Agilent Bioanalysis Software package.

[12] = molecular target: T2, rFphB; experiment: FP-Cy5 active site labeling competition of recombinant protein, rFphB; assay type: binding
Experimental: as §4

[13] = test system: HEK293 cells; experiment: Cytotoxicity assay (CellTiter-Blue); assay type: cell-based; settings: mammalian cells
[14] = molecular target: T3, Fph enzymes in live S. aureus cells (USA300) (Staphylococcus aureus, UniProt A0A0H2XJG5); experiment: Competition of FP-alkyne labeling in live S. aureus cells; assay type: cell-based; settings: live cells, increasing concentrations, 120 min
T3 construct: endogenous in cells; host or cells: live S. aureus USA300 (LAC) wild-type cells
T3 sequence (A0A0H2XJG5 1-322): T2 sequence (A0A0H2XJG5 1-322)
Experimental: as §3

Row | SMILES | growth defect (in words) [1] | effect on biofilm formation in transposon mutants (in words) ([2]; fphH or fphE transposon mutant) | effect on biofilm formation (in words) [2] | growth inhibition (in words) [3] | impact of N34 pretreatment on antibiotic susceptibility (in words) [4] | growth inhibition (in words) [5] | CC50 at 48 h [6] | growth defect (in words) [7] | competition of FP labeling in live cells (in words) ([8]; 100 μM compound, live S. aureus cells) | concentration giving partial inhibition of FphE and other lower molecular weight Fph proteins ([8]; live cells, doses 5–100 μM, 120 min preincubation) | effect on S. aureus growth (in words) [9] | competition of FP-Cy5 labeling of rFphH (in words) [10] | adduct formation on rFphB (in words) [11] | reduction of biofilms ([2]; WT cells, highest concentrations) | reduction of biofilms ([2]; fphB mutant) | competition of FP-Cy5 labeling of rFphB (in words) [12] | off-target effects in mammalian cells (in words) [13] | competition of FP-alkyne labeling of native FphB (in words) [14]
1 | OB(O)c1ccc(C(F)(F)F)s1 [N34] | no significant growth defect | not further increased by addition of even 100 μM concentrations of N34 | most pronounced effects | no growth inhibition | does not impact resistance or susceptibility profiles of the antibiotics | inhibited only by the FphH inhibitor N34 | > 200 µM | no significant growth defect | blocked FP labeling of FphH | ≥ 50 µM | both the fphE and fphH mutants grew slower than wild type | dose-dependently blocked labeling of rFphH |  |  |  |  |  | 
2 | COc1cc2c(cc1S(=O)(=O)F)C(=O)NCCC2 [X20] |  |  | significant inhibition of biofilm formation |  |  |  |  |  |  |  | minimal effect on planktonic growth |  | a single X20 adduct formed | 60% | 40% | dose-dependently blocked labeling of rFphB | did not show any off-target effects in mammalian cells | retains both its potency and selectivity towards the natively expressed FphB
